Laboratory results reported in ChEMBL document CHEMBL3301361, “Experimental in vitro DMPK and physicochemical data on a set of publicly disclosed compounds”.
Converted amounts (≈) assume the structure as drawn.

Experiment: physchem
Details: pH 7.4 buffer

| solubility thermodynamic [µM] | SMILES |
| --- | --- |
| 0.5 (≈ 0.264 µg/mL) | Cn1cnc(-c2cccc(NC(=O)Nc3cc(C(F)(F)F)ccc3F)c2)c1-c1cc2c(N)ncnc2s1 |
| 759 (≈ 269 µg/mL) | O=C(O)c1c(Cl)c2ccccc2n1Cc1ccc(Cl)c(Cl)c1 |
| 1100 (≈ 437 µg/mL) | CS(=O)(=O)c1ccc2c(c1)cc(C(=O)O)n2Cc1ccc(Cl)c(Cl)c1 |
| 676 (≈ 154 µg/mL) | COc1ccc(NC(=O)c2ccccn2)cc1 |
| 1000 (≈ 473 µg/mL) | CNC(=O)[C@@H](NC(=O)[C@H](CC(C)C)[C@H](OCc1cccc2cccnc12)C(=O)NO)C(C)(C)C |
| 0.1 (≈ 0.0394 µg/mL) | COCCOc1cc2nncc(Nc3cc(O)c(Cl)cc3F)c2cc1OC |
| 1200 (≈ 396 µg/mL) | Cn1cc(C(=O)CCCCOc2ccc(C(=O)O)cc2)cc1C=O |
| 794 (≈ 186 µg/mL) | O=S(=O)(Nc1ccncc1)c1ccccc1 |
| 0.5 (≈ 0.181 µg/mL) | O=C(Cc1ccc2ccccc2c1)Nc1cc(-c2ccc(Cl)cc2)n[nH]1 |
| 0.4 (≈ 0.199 µg/mL) | C#CCN(Cc1ccc2nc(CO)[nH]c(=O)c2c1)c1ccc(C(=O)NCc2cccc([N+](=O)[O-])c2)cc1 |
| 1350 (≈ 300 µg/mL) | O=c1cc(-c2cccnc2)[nH]c2ccccc12 |
| 1350 (≈ 288 µg/mL) | O=C(Nc1ccccc1)Nc1ccncc1 |
| 1260 (≈ 607 µg/mL) | COC[C@H](C)Oc1cc(O[C@@H](C)Cc2ccc(F)cc2)cc(C(=O)Nc2ccc(C(=O)O)cn2)c1 |
| 589 (≈ 291 µg/mL) | COC[C@H](C)Oc1cc(O[C@@H](C)Cc2ccccc2OC)cc(C(=O)Nc2ccc(C(=O)O)cn2)c1 |
| 646 (≈ 323 µg/mL) | COC[C@H](C)Oc1cc(O[C@@H](C)Cc2cc(F)cc(F)c2)cc(C(=O)Nc2ccc(C(=O)O)cn2)c1 |
| 1510 (≈ 685 µg/mL) | COC[C@H](C)Oc1cc(Oc2ccc(OC)cc2)cc(C(=O)Nc2ccc(C(=O)O)cn2)c1 |
| 1170 (≈ 537 µg/mL) | COC[C@H](C)Oc1cc(Oc2cccc(Cl)c2)cc(C(=O)Nc2ccc(C(=O)O)cn2)c1 |
| 1380 (≈ 608 µg/mL) | COC[C@H](C)Oc1cc(Oc2cccc(F)c2)cc(C(=O)Nc2ccc(C(=O)O)cn2)c1 |
| 1350 (≈ 628 µg/mL) | COC[C@H](C)Oc1cc(Oc2cccc(N(C)C)c2)cc(C(=O)Nc2ccc(C(=O)O)cn2)c1 |
| 0.5 (≈ 0.176 µg/mL) | O=C(CNC(=O)c1ccc(Cl)cc1)c1ccc(Br)cc1 |
| 912 (≈ 238 µg/mL) | CNC(=O)CCc1nc(-c2ccc(OC)cc2)no1 |
| 1070 (≈ 452 µg/mL) | CC(C)Oc1cc(OCCc2ccncc2)cc(C(=O)Nc2ccc(C(=O)O)cn2)c1 |
| 0.6 (≈ 0.29 µg/mL) | COCCOc1cc2ncnc(Nc3ncc(CC(=O)Nc4cccc(F)c4)s3)c2cc1OC |
| 0.6 (≈ 0.333 µg/mL) | CCN(CCO)CCCOc1cc2ncnc(Nc3ncc(CC(=O)Nc4cccc(F)c4)s3)c2cc1OC |
| 1350 (≈ 660 µg/mL) | CNc1cccc(CCOc2ccc(C[C@H](NC(=O)c3c(Cl)cncc3Cl)C(=O)O)cc2)n1 |
| 851 (≈ 471 µg/mL) | Cc1ccc(NC(=O)c2ccnc(N3CCOCC3)c2)cc1-n1c(C)nc2ccc(N3CCN(C)CC3)cc2c1=O |

| solubility thermodynamic [µM] | SMILES |
| --- | --- |
| 646 (≈ 279 µg/mL) | CNC(=O)[C@@H](C)N(C)Cc1cc2c(Nc3cccc(Cl)c3F)ncnc2cc1OC |
| 550 (≈ 347 µg/mL) | COc1ccc(Cn2c(CCc3c[nH]c4ccccc34)nnc2[C@@H](Cc2c[nH]c3ccccc23)NC(=O)C2CCNCC2)c(OC)c1 |
| 1000 (≈ 568 µg/mL) | COc1cc2c(Nc3cc(CC(=O)Nc4cccc(F)c4F)[nH]n3)ncnc2cc1OCCCN1CCC[C@H]1CO |
| 661 (≈ 277 µg/mL) | CC1(c2c(C(=O)NC3C4CC5CC(C4)CC3C5)cnn2-c2ccc(C(=O)O)cc2)CC1 (stereo not drawn) |
| 1350 (≈ 530 µg/mL) | Nc1ccccc1NC(=O)c1ccc(-c2ncc(CN3CCC3)cc2Cl)cc1 |
| 1350 (≈ 613 µg/mL) | CC(C)N1CCN(Cc2cnc(-c3ccc(C(=O)Nc4ccccc4N)cc3)c(C#N)c2)CC1 |
| 0.1 (≈ 0.0514 µg/mL) | C#CCN(Cc1cc2c(=O)[nH]c(C)nc2cc1C)c1ccc(C(=O)NCc2cccc([N+](=O)[O-])c2)c(F)c1 |
| 1380 (≈ 416 µg/mL) | O=C(NCc1ccc(C(=O)NO)cc1)OCc1cccnc1 |
| 0.3 (≈ 0.0829 µg/mL) | COc1ccc(-c2[nH]nc3c2C(=O)c2ccccc2-3)cc1 |
| 0.4 (≈ 0.159 µg/mL) | COc1cc(OC)cc(-c2cc3cnc(N)nc3nc2NC(=O)NC(C)(C)C)c1 |
| 1020 (≈ 370 µg/mL) | O=C(O)COc1ccc(OCCNC[C@H](O)COc2ccccc2)cc1 |
| 0.6 (≈ 0.246 µg/mL) | COc1cc2ncnc(Nc3ccc4c(ccn4Cc4ccccc4)c3)c2cc1OC |
| 550 (≈ 131 µg/mL) | O=c1c2ccccc2[nH]n1CCc1ccccc1 |
| 550 (≈ 283 µg/mL) | COc1cc2ncnc(Nc3cccc(Cl)c3F)c2cc1CN(C)C1(C(N)=O)CCN(C(C)C)CC1 |
| 0.3 (≈ 0.137 µg/mL) | COc1cc2c(NC(=O)Nc3ccccc3Cl)ncnc2cc1OCC1CCN(C)CC1 |
| 0.1 (≈ 0.0444 µg/mL) | C#CCN(Cc1ccc2nc(C)nc(O)c2c1)c1ccc(S(=O)(=O)c2ccccc2)cc1 |
| 1510 (≈ 802 µg/mL) | COc1cc2c(Nc3cnc(NC(=O)c4ccccc4)nc3)ncnc2cc1OC[C@@H](O)CN1CCCCC1 |
| 0.3 (≈ 0.158 µg/mL) | C[C@@H](Oc1cccc2ncnc(Nc3ccc4c(cnn4Cc4cccc(F)c4)c3)c12)C(=O)N1CCOCC1 |
| 0.6 (≈ 0.202 µg/mL) | NC(=O)Nc1sc(-c2ccccc2)cc1C(=O)Nc1ccccc1 |
| 0.2 (≈ 0.0927 µg/mL) | CS(=O)(=O)N1CC2(CCN(C(=O)Nc3cnc(-c4ccccc4)cn3)CC2)c2ccccc21 |
| 0.5 (≈ 0.246 µg/mL) | CS(=O)(=O)c1cccc(CNc2nc(Nc3ccc4c(c3)CCC(=O)N4)ncc2C(F)(F)F)c1 |
| 0.4 (≈ 0.214 µg/mL) | COc1cc2c(Nc3ncc(CC(=O)Nc4ccccc4)s3)ncnc2cc1OCCCN1CCOCC1 |
| 1290 (≈ 522 µg/mL) | COc1cc2ncnc(Nc3ccc(F)c(Cl)c3)c2cc1OCCCN(C)C |
| 1320 (≈ 698 µg/mL) | CN(C)C(=N)c1ccc(C(=O)N2CCN(S(=O)(=O)c3ccc4cc(Br)ccc4c3)CC2)cc1 |
| 0.3 (≈ 0.112 µg/mL) | COc1cc2ncnc(Nc3ccc(Oc4ccccc4)cc3)c2cc1OC |

Further lines, the compound ahead of its results:

| SMILES | solubility thermodynamic [µM] |
| --- | --- |
| CC(C)(C)Cn1c2ccccc2c2cc(NC(=O)N3CCOCC3)ccc21 | 0.1 (≈ 0.0365 µg/mL) |
| Nc1nc2cc(Cl)ccc2n1CCCO | 1320 (≈ 298 µg/mL) |
| O=C(O)c1cc2ccccc2n1Cc1cccc(Cl)c1 | 1200 (≈ 344 µg/mL) |
| O=C(O)c1cc2c(F)cccc2n1Cc1ccc(Cl)c(Cl)c1 | 525 (≈ 177 µg/mL) |
| O=C(c1ccc(F)cc1)C1CCN(C(=O)N2CCOCC2)CC1 | 1150 (≈ 368 µg/mL) |
| c1ccc(-c2cn3cccnc3n2)cc1 | 676 (≈ 132 µg/mL) |
| Cc1ccc(Nc2nc(C)nc3c2oc2ccccc23)cc1 | 0.5 (≈ 0.145 µg/mL) |
| Nc1cccc(S(=O)(=O)Nc2ccccc2)c1 | 1020 (≈ 254 µg/mL) |
| Nc1nnc(Cc2ccccc2)s1 | 1200 (≈ 230 µg/mL) |
| CNC(=O)[C@@H](NC(=O)[C@H](CC(C)C)[C@H](Sc1ccc(OC)c(OC)c1)C(=O)NO)C(C)(C)C | 1290 (≈ 623 µg/mL) |
| Cc1ccc2c(c1)-c1ccccc1S(=O)(=O)N2 | 631 (≈ 155 µg/mL) |
| Nc1n[nH]c(S(=O)(=O)CCCc2ccccc2)n1 | 575 (≈ 153 µg/mL) |
| Clc1ccc(-c2nnc(CNC3CC3)o2)cc1 | 1230 (≈ 307 µg/mL) |
| Cc1noc(C)c1CCC1CCN(S(=O)(=O)CC2(N(O)C=O)CCOC(C)(C)C2)CC1 (stereo not drawn) | 851 (≈ 389 µg/mL) |
| Cc1cc(O)nc(SCC(=O)c2ccccc2)n1 | 708 (≈ 184 µg/mL) |
| Cc1[nH]c2ccccc2c1CC#N | 1020 (≈ 174 µg/mL) |
| CC(=O)N1CCC(NC(=O)c2ccc(Oc3ccc(C#C[C@]4(O)CN5CCC4CC5)cc3)cc2)CC1 | 646 (≈ 315 µg/mL) |
| CCN(C(=O)Cc1ccc(S(C)(=O)=O)cc1)C1CCN(CCC(c2ccccc2)N2CCN(c3ccccc3)CC2)CC1 (stereo not drawn) | 692 (≈ 417 µg/mL) |
| CCN(C(=O)Cc1ccc(S(C)(=O)=O)cc1)C1CCN(CCC(c2ccccc2)C2CCN(C(C)=O)CC2)CC1 (stereo not drawn) | 1510 (≈ 859 µg/mL) |
| CCN1CCC[C@@H](C(=O)N2CCN(C(=O)Nc3ccc(Cl)c(Cl)c3)CC2)C1 | 1050 (≈ 433 µg/mL) |
| COc1cc(OC2CCOCC2)c2c(Nc3ccc(F)c(Cl)c3)ncnc2c1 | 0.1 (≈ 0.0404 µg/mL) |
| Cc1sc(N2CCN(C(=O)[C@@H]3CCCC[C@H]3C(=O)NC3(C#N)CC3)CC2)nc1C(F)(F)F | 1070 (≈ 503 µg/mL) |
| c1csc(-c2n[nH]c3c2Cc2ccccc2-3)c1 | 0.6 (≈ 0.143 µg/mL) |
| CC(C)(C)CNCCn1c(Sc2nc3cccc(Cl)c3s2)nc2c(N)ncnc21 | 0.5 (≈ 0.224 µg/mL) |

| SMILES | solubility thermodynamic [µM] |
| --- | --- |
| CS(=O)(=O)c1ccc2c3c([nH]c2c1)CCN(C(=O)[C@@H]1CCCC[C@H]1C(=O)NC1(C#N)CC1)C3 | 912 (≈ 427 µg/mL) |
| N#CC1(NC(=O)[C@@H]2CCCC[C@H]2C(=O)N2CCc3[nH]c4ncccc4c3C2)CC1 | 1510 (≈ 593 µg/mL) |
| N#CC1(NC(=O)[C@@H]2CCCC[C@H]2C(=O)N2CCc3oc4ccccc4c3C2)CC1 | 575 (≈ 225 µg/mL) |
| N#CCNC(=O)[C@@H]1CCCC[C@H]1C(=O)N1CCN(c2ccccc2)CC1 | 631 (≈ 224 µg/mL) |
| N#CC1(NC(=O)[C@@H]2CCCC[C@H]2C(=O)N2CCc3[nH]c4ccccc4c3C2)CC1 | 912 (≈ 356 µg/mL) |
| N#CC1(NC(=O)[C@@H]2CCCC[C@H]2C(=O)N2CCc3[nH]c4cc(F)ccc4c3C2)CC1 | 537 (≈ 219 µg/mL) |
| COc1ccc2[nH]c3c(c2c1)CN(C(=O)[C@@H]1CCCC[C@H]1C(=O)NC1(C#N)CC1)CC3 | 813 (≈ 342 µg/mL) |
| Cc1noc2cc(N3CCN(C(=O)[C@@H]4CCCC[C@H]4C(=O)NC4(C#N)CC4)[C@H](C)C3)ccc12 | 603 (≈ 271 µg/mL) |
| CN1CCC(Oc2cc(OCCF)cc3ncnc(Nc4c(Cl)ccc5c4OCO5)c23)CC1 | 759 (≈ 360 µg/mL) |
| CCCSc1c(C(=O)NC2CCCCC2)cnn1C | 1230 (≈ 346 µg/mL) |
| Fc1ccc(CN2CCN(C3=Nn4c(nnc4C(F)(F)F)CC3)CC2)cc1 | 525 (≈ 201 µg/mL) |
| Oc1ccc(-n2ccnc2)cc1 | 1260 (≈ 202 µg/mL) |
| COc1cc2c(Nc3ccc(Cl)cc3F)ncnc2cc1OC/C=C/CN1CCCC1 | 759 (≈ 336 µg/mL) |
| CC(C)(C)c1cc(=O)n(-c2ccccc2)[nH]1 | 708 (≈ 153 µg/mL) |
| Cc1ccc(SCc2cc(=O)n(C)[nH]2)cc1 | 1510 (≈ 355 µg/mL) |
| Cc1nc(-c2c(C)n(Cc3c(F)cccc3F)c(=O)n(C[C@H](N)c3ccccc3)c2=O)cs1 | 1510 (≈ 709 µg/mL) |
| Cc1cc(C)cc(-c2[nH]c3sc(C(C)(C)C(=O)N4C5CCC4CC5)cc3c2[C@H](C)CNC(=O)N2CCC(c3ccncc3)CC2)c1 | 0.6 (≈ 0.383 µg/mL) |
| O=C1NCCc2c1[nH]c1ccccc21 | 1260 (≈ 234 µg/mL) |
| O=C1CSc2ccccc2N1 | 871 (≈ 144 µg/mL) |
| COc1cc(-c2cnc(N)c(-c3nc4ccccc4[nH]3)c2)cc(OC)c1OC | 0.5 (≈ 0.188 µg/mL) |
| CCCNc1nc2ccccc2c(=O)[nH]1 | 537 (≈ 109 µg/mL) |
| CC(=O)Nc1nc2c(s1)C(=O)NCCC2 | 1350 (≈ 304 µg/mL) |
| CC(=O)Nc1ccc(Br)cc1 | 832 (≈ 178 µg/mL) |
